Data taken from article PMC9452764, “Pseudomonas syringae pv. tomato infection of tomato plants is mediated by GABA and L‐Pro chemoperception” (Molecular Plant Pathology, 2022).
Read-outs that look alike come from different tables or passages of the source.

Biological target: T1, PsPto‐PscC‐LBD (Pseudomonas syringae group genomosp. 3, UniProt Q883C0)
T1 construct: gene PSPTO_2448; pET28b(+) derivative p2448-LBD, HisTrap purified, E. coli BL21(AI)
Test: isothermal titration calorimetry
Format: binding

T1 sequence (Q883C0 entry or part of it): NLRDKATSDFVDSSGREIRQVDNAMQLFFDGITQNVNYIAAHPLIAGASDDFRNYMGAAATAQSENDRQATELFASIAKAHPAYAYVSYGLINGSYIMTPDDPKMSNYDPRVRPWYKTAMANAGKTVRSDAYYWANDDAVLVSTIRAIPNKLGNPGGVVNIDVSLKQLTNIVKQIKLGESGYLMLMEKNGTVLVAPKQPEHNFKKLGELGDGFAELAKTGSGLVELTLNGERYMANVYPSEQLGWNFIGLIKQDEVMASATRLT

SMILES: O=C(O)[C@@H]1CCCN1 [L‐Pro]
- Kd: 4.52 ± 0.4 µM

SMILES: NCCCC(=O)O [GABA]
- Kd (read-out: K D): 1.87 ± 0.3 µM
